In article PMC12298351, “Novel 3,19-(N-Phenyl-3-(4-fluorophenyl)-pyrazole) Acetal of Andrographolide Promotes Cell Cycle Arrest and Apoptosis in MDA-MB-231 Breast Cancer Cells” (Pharmaceuticals, 2025):

Legend:
SF-268 = settings: SF-268, CNS
HCT-15 = settings: HCT-15, Colon
PC-3 = settings: PC-3, Prostate
SK-MEL-5 = settings: SK-MEL-5, Melanoma
UACC-257 = settings: UACC-257, Melanoma
HCC-2998 = settings: HCC-2998, Colon
SK-OV-3 = settings: SK-OV-3, Ovarian
OVCAR-5 = settings: OVCAR-5, Ovarian
SNB-75 = settings: SNB-75, CNS
HCT-116 = format: cell-based; settings: HCT-116, Colon
RPMI-8226 = settings: RPMI-8226, Leukemia
786-0 = settings: 786-0, Renal
IGROV1 = settings: IGROV1, Ovarian
MDA-MB-435 = settings: MDA-MB-435, Melanoma
COLO 205 = settings: COLO 205, Colon
OVCAR-4 = format: cell-based; settings: OVCAR-4, Ovarian
DU-145 = settings: DU-145, Prostate
TK-10 = format: cell-based; settings: TK-10, Renal
SF-295 = settings: SF-295, CNS
UO-31 = settings: UO-31, Renal
BT-549 = format: cell-based; settings: BT-549, Breast
MOLT-4 = settings: MOLT-4, Leukemia
SNB-19 = format: cell-based; settings: SNB-19, CNS
K-562 = settings: K-562, Leukemia
UACC-62 = settings: UACC-62, Melanoma
[1] = read-out: 50% lethal concentration (LC50)
[2] = read-out: 50% lethal concentration (LC50), Leukemia

C=C1CCC2C3(C)COC(c4cn(-c5ccccc5)nc4-c4cccc([N+](=O)[O-])c4)OC3CCC2(C)C1CC=C1C(=O)OCC1O (stereo not drawn) [1b]
GI50 (SF-268): 7.65 µM | Total growth inhibition (TGI) (SF-268): > 100 µM | CC50 (SF-268; [1]): > 100 µM | GI50 (HCT-15): 1.74 µM | Total growth inhibition (TGI) (HCT-15): 3.58 µM | CC50 (HCT-15; [1]): 7.37 µM | Total growth inhibition (TGI) (NCI-H23; NCI-H23, Non-Small Cell Lung): 3.55 µM | GI50 (NCI-H23; NCI-H23, Non-Small-Cell Lung): 1.83 µM | CC50 (NCI-H23; read-out: 50% lethal concentration (LC50), NCI-H23, Non-Small Cell Lung): 6.87 µM | GI50 (PC-3): 2.75 µM | Total growth inhibition (TGI) (PC-3): 9.04 µM | CC50 (PC-3; [1]): > 100 µM | GI50 (SK-MEL-5): 1.63 µM | Total growth inhibition (TGI) (SK-MEL-5): 3 µM | CC50 (SK-MEL-5; [1]): 5.53 µM | GI50 (UACC-257): 1.8 µM | Total growth inhibition (TGI) (UACC-257): 3.68 µM | CC50 (UACC-257; [1]): 7.53 µM | GI50 (HCC-2998): 1.92 µM | Total growth inhibition (TGI) (HCC-2998): 3.53 µM | CC50 (HCC-2998; [1]): 6.48 µM | GI50 (SK-OV-3): 2.08 µM | Total growth inhibition (TGI) (SK-OV-3): > 100 µM | CC50 (SK-OV-3; [1]): > 100 µM | GI50 (OVCAR-5): 2.06 µM | Total growth inhibition (TGI) (OVCAR-5): 5.05 µM | GI50 (CCRF-CEM; Leukemia): 1.14 µM | Total growth inhibition (TGI) (CCRF-CEM; Leukemia): 5.01 µM | CC50 (CCRF-CEM; [2]): > 100 µM | GI50 (SNB-75): 7.34 µM | Total growth inhibition (TGI) (SNB-75): 50 µM | CC50 (SNB-75; [1]): > 100 µM | GI50 (HCT-116): 1.99 µM | Total growth inhibition (TGI) (HCT-116): 4.25 µM | Total growth inhibition (TGI) (HOP-92; HOP-92, Non-Small Cell Lung): 3.64 µM | GI50 (HOP-92; HOP-92, Non-Small-Cell Lung): 1.86 µM | CC50 (HOP-92; read-out: 50% lethal concentration (LC50), HOP-92, Non-Small Cell Lung): 7.11 µM | GI50 (RPMI-8226): 2.45 µM | Total growth inhibition (TGI) (RPMI-8226): > 100 µM | CC50 (RPMI-8226; [1]): > 100 µM | GI50 (786-0): 3.04 µM | Total growth inhibition (TGI) (786-0): 10.3 µM | CC50 (786-0; [1]): > 100 µM | Total growth inhibition (TGI) (NCI-H522; NCI-H522, Non-Small Cell Lung): 3.41 µM | GI50 (NCI-H522; NCI-H522, Non-Small-Cell Lung): 1.75 µM | CC50 (NCI-H522; read-out: 50% lethal concentration (LC50), NCI-H522, Non-Small Cell Lung): 6.65 µM | GI50 (IGROV1): 2.08 µM | Total growth inhibition (TGI) (IGROV1): 4.27 µM | CC50 (IGROV1; [1]): 8.76 µM | GI50 (MDA-MB-435): 3.03 µM | Total growth inhibition (TGI) (MDA-MB-435): 18.3 µM | CC50 (MDA-MB-435; [1]): > 100 µM | GI50 (COLO 205): 2.41 µM | Total growth inhibition (TGI) (COLO 205): 5.06 µM | CC50 (COLO 205; [1]): 12.7 µM | GI50 (OVCAR-4): 4.05 µM | Total growth inhibition (TGI) (OVCAR-4): > 100 µM | CC50 (OVCAR-4; [1]): > 100 µM | GI50 (DU-145): 4.11 µM | Total growth inhibition (TGI) (DU-145): 24.3 µM | CC50 (DU-145; [1]): > 100 µM | GI50 (TK-10): 2.22 µM | Total growth inhibition (TGI) (TK-10): 5.82 µM | CC50 (TK-10; [1]): > 100 µM | GI50 (ACHN; Renal): 1.89 µM | Total growth inhibition (TGI) (ACHN; Renal): 3.62 µM | CC50 (ACHN; read-out: 50% lethal concentration (LC50), Renal): 6.94 µM | GI50 (SF-295): 1.68 µM | Total growth inhibition (TGI) (SF-295): 3.19 µM | CC50 (SF-295; [1]): 6.05 µM | GI50 (UO-31): 1.82 µM | Total growth inhibition (TGI) (UO-31): 5.46 µM | CC50 (UO-31; [1]): 35.7 µM | GI50 (HL-60(TB); Leukemia): 1.73 µM | Total growth inhibition (TGI) (HL-60(TB); Leukemia): > 100 µM | CC50 (HL-60(TB); [2]): > 100 µM | GI50 (BT-549): 1.94 µM | Total growth inhibition (TGI) (BT-549): 3.8 µM | GI50 (T-47D; Breast): 1.76 µM | Total growth inhibition (TGI) (T-47D; Breast): 5.02 µM | CC50 (T-47D; read-out: 50% lethal concentration (LC50), Breast): > 100 µM | GI50 (MOLT-4): 2.87 µM | Total growth inhibition (TGI) (MOLT-4): > 100 µM | CC50 (MOLT-4; [1]): > 100 µM | GI50 (SNB-19): 3.64 µM | Total growth inhibition (TGI) (SNB-19): 15 µM | CC50 (SNB-19; [1]): 60 µM | GI50 (K-562): 2.16 µM | Total growth inhibition (TGI) (K-562): > 100 µM | CC50 (K-562; [1]): > 100 µM | GI50 (UACC-62): 1.69 µM | Total growth inhibition (TGI) (UACC-62): 3.46 µM | CC50 (UACC-62; [1]): 7.06 µM
